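Growth conditions: 96-well plates. Treatment: test compound, 48 hours, 5 concentrations. Analysis: linear interpolation between bracketing concentrations; unreached endpoints set to highest concentration. At the TGI there is no net growth.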
These compounds were tested on MOLT-4 leukemia (assay: inhibition of tumour cell growth, NCI panel, 48 h).

Row | SMILES | TGI
1 | CC1=C/C(=N\NC(N)=S)C(C(O)(C(F)(F)F)C(F)(F)F)C(C)(C)C1 (stereo unspecified) | > 10 µM

What follows are compounds tested on NCI-H226 lung (assay: inhibition of tumour cell growth, NCI panel, 48 h).

Row | SMILES | TGI
2 | O=S1C(=c2ccc(=C3Sc4ccccc4S3)cc2)Sc2ccccc21 (stereo unspecified) | 34 µM
3 | N#CC(C(=O)CCC(=O)Nc1ccc(Cl)c(Cl)c1)c1ccccc1 (stereo unspecified) | > 100 µM
4 | O=c1c2cccnc2ncn1CCN1CCCCC1 | > 100 µM
5 | O=C(Nc1c(O)[nH]c(=S)[nH]c1=O)c1ccccc1 | > 100 µM
6 | COc1ccc(C2c3cc4c(cc3OC3(OC)COC(=O)C23)OCO4)c(OC)c1 (stereo unspecified) | > 100 µM
7 | COc1cc2c(cc1O)[C@H](C)C(c1ccc(OC)c(OC)c1)O2 (stereo partly specified) | 64.6 µM
8 | CC1=C/C(=N\NC(N)=S)C(C(O)(C(F)(F)F)C(F)(F)F)C(C)(C)C1 (stereo unspecified) | > 10 µM

What follows are compounds tested on NCI-H23 lung (assay: inhibition of tumour cell growth, NCI panel, 48 h).

Row | SMILES | TGI
9 | O=S1C(=c2ccc(=C3Sc4ccccc4S3)cc2)Sc2ccccc21 (stereo unspecified) | 30.2 µM
10 | N#CC(C(=O)CCC(=O)Nc1ccc(Cl)c(Cl)c1)c1ccccc1 (stereo unspecified) | > 100 µM
11 | O=c1c2cccnc2ncn1CCN1CCCCC1 | > 100 µM
12 | O=C(Nc1c(O)[nH]c(=S)[nH]c1=O)c1ccccc1 | > 100 µM
13 | COc1ccc(C2c3cc4c(cc3OC3(OC)COC(=O)C23)OCO4)c(OC)c1 (stereo unspecified) | > 100 µM
14 | COc1cc2c(cc1O)[C@H](C)C(c1ccc(OC)c(OC)c1)O2 (stereo partly specified) | 28.1 µM
15 | CC1=C/C(=N\NC(N)=S)C(C(O)(C(F)(F)F)C(F)(F)F)C(C)(C)C1 (stereo unspecified) | > 10 µM

Each compound was assayed on NCI-H460 lung (assay: inhibition of tumour cell growth, NCI panel, 48 h).

Row | SMILES | TGI
16 | O=S1C(=c2ccc(=C3Sc4ccccc4S3)cc2)Sc2ccccc21 (stereo unspecified) | > 54.8 µM
17 | O=c1c2cccnc2ncn1CCN1CCCCC1 | > 100 µM
18 | O=C(Nc1c(O)[nH]c(=S)[nH]c1=O)c1ccccc1 | > 100 µM
19 | COc1ccc(C2c3cc4c(cc3OC3(OC)COC(=O)C23)OCO4)c(OC)c1 (stereo unspecified) | > 100 µM
20 | COc1cc2c(cc1O)[C@H](C)C(c1ccc(OC)c(OC)c1)O2 (stereo partly specified) | 4.87 µM
21 | CC1=C/C(=N\NC(N)=S)C(C(O)(C(F)(F)F)C(F)(F)F)C(C)(C)C1 (stereo unspecified) | > 10 µM

These compounds were tested on NCI-H522 lung (assay: inhibition of tumour cell growth, NCI panel, 48 h).

Row | SMILES | TGI
22 | O=S1C(=c2ccc(=C3Sc4ccccc4S3)cc2)Sc2ccccc21 (stereo unspecified) | > 100 µM
23 | O=c1c2cccnc2ncn1CCN1CCCCC1 | > 100 µM
24 | O=C(Nc1c(O)[nH]c(=S)[nH]c1=O)c1ccccc1 | > 100 µM
25 | COc1ccc(C2c3cc4c(cc3OC3(OC)COC(=O)C23)OCO4)c(OC)c1 (stereo unspecified) | > 22.5 µM
26 | COc1cc2c(cc1O)[C@H](C)C(c1ccc(OC)c(OC)c1)O2 (stereo partly specified) | 30.8 µM
27 | CC1=C/C(=N\NC(N)=S)C(C(O)(C(F)(F)F)C(F)(F)F)C(C)(C)C1 (stereo unspecified) | > 10 µM

Each compound was assayed on NCI/ADR-RES ovarian (assay: inhibition of tumour cell growth, NCI panel, 48 h).

Row | SMILES | TGI
28 | COc1ccc(C2c3cc4c(cc3OC3(OC)COC(=O)C23)OCO4)c(OC)c1 (stereo unspecified) | 34.5 µM
29 | CC1=C/C(=N\NC(N)=S)C(C(O)(C(F)(F)F)C(F)(F)F)C(C)(C)C1 (stereo unspecified) | > 10 µM

The compounds below were run on OVCAR-3 ovarian (assay: inhibition of tumour cell growth, NCI panel, 48 h).

Row | SMILES | TGI
30 | O=S1C(=c2ccc(=C3Sc4ccccc4S3)cc2)Sc2ccccc21 (stereo unspecified) | > 100 µM
31 | N#CC(C(=O)CCC(=O)Nc1ccc(Cl)c(Cl)c1)c1ccccc1 (stereo unspecified) | > 100 µM
32 | O=c1c2cccnc2ncn1CCN1CCCCC1 | > 100 µM
33 | O=C(Nc1c(O)[nH]c(=S)[nH]c1=O)c1ccccc1 | > 100 µM
34 | COc1ccc(C2c3cc4c(cc3OC3(OC)COC(=O)C23)OCO4)c(OC)c1 (stereo unspecified) | > 63 µM
35 | COc1cc2c(cc1O)[C@H](C)C(c1ccc(OC)c(OC)c1)O2 (stereo partly specified) | 16.6 µM
36 | CC1=C/C(=N\NC(N)=S)C(C(O)(C(F)(F)F)C(F)(F)F)C(C)(C)C1 (stereo unspecified) | > 10 µM

What follows are compounds tested on OVCAR-4 ovarian (assay: inhibition of tumour cell growth, NCI panel, 48 h).

Row | SMILES | TGI
37 | O=S1C(=c2ccc(=C3Sc4ccccc4S3)cc2)Sc2ccccc21 (stereo unspecified) | > 100 µM
38 | N#CC(C(=O)CCC(=O)Nc1ccc(Cl)c(Cl)c1)c1ccccc1 (stereo unspecified) | > 100 µM
39 | O=c1c2cccnc2ncn1CCN1CCCCC1 | > 100 µM
40 | O=C(Nc1c(O)[nH]c(=S)[nH]c1=O)c1ccccc1 | > 100 µM
41 | COc1ccc(C2c3cc4c(cc3OC3(OC)COC(=O)C23)OCO4)c(OC)c1 (stereo unspecified) | > 100 µM
42 | COc1cc2c(cc1O)[C@H](C)C(c1ccc(OC)c(OC)c1)O2 (stereo partly specified) | 26.2 µM
43 | CC1=C/C(=N\NC(N)=S)C(C(O)(C(F)(F)F)C(F)(F)F)C(C)(C)C1 (stereo unspecified) | > 10 µM

Each compound was assayed on OVCAR-5 ovarian (assay: inhibition of tumour cell growth, NCI panel, 48 h).

Row | SMILES | TGI
44 | O=S1C(=c2ccc(=C3Sc4ccccc4S3)cc2)Sc2ccccc21 (stereo unspecified) | 32.4 µM
45 | N#CC(C(=O)CCC(=O)Nc1ccc(Cl)c(Cl)c1)c1ccccc1 (stereo unspecified) | > 100 µM
46 | O=c1c2cccnc2ncn1CCN1CCCCC1 | > 100 µM
47 | O=C(Nc1c(O)[nH]c(=S)[nH]c1=O)c1ccccc1 | > 100 µM
48 | COc1ccc(C2c3cc4c(cc3OC3(OC)COC(=O)C23)OCO4)c(OC)c1 (stereo unspecified) | > 100 µM
49 | COc1cc2c(cc1O)[C@H](C)C(c1ccc(OC)c(OC)c1)O2 (stereo partly specified) | > 100 µM
50 | CC1=C/C(=N\NC(N)=S)C(C(O)(C(F)(F)F)C(F)(F)F)C(C)(C)C1 (stereo unspecified) | > 10 µM

The compounds below were run on OVCAR-8 ovarian (assay: inhibition of tumour cell growth, NCI panel, 48 h).

Row | SMILES | TGI
51 | O=S1C(=c2ccc(=C3Sc4ccccc4S3)cc2)Sc2ccccc21 (stereo unspecified) | 34.4 µM
52 | N#CC(C(=O)CCC(=O)Nc1ccc(Cl)c(Cl)c1)c1ccccc1 (stereo unspecified) | > 100 µM
53 | O=c1c2cccnc2ncn1CCN1CCCCC1 | > 100 µM
54 | O=C(Nc1c(O)[nH]c(=S)[nH]c1=O)c1ccccc1 | > 100 µM
55 | COc1ccc(C2c3cc4c(cc3OC3(OC)COC(=O)C23)OCO4)c(OC)c1 (stereo unspecified) | > 100 µM
56 | COc1cc2c(cc1O)[C@H](C)C(c1ccc(OC)c(OC)c1)O2 (stereo partly specified) | 35.1 µM
57 | CC1=C/C(=N\NC(N)=S)C(C(O)(C(F)(F)F)C(F)(F)F)C(C)(C)C1 (stereo unspecified) | > 10 µM

These compounds were tested on PC-3 prostate (assay: inhibition of tumour cell growth, NCI panel, 48 h).

Row | SMILES | TGI
58 | COc1ccc(C2c3cc4c(cc3OC3(OC)COC(=O)C23)OCO4)c(OC)c1 (stereo unspecified) | > 100 µM
59 | CC1=C/C(=N\NC(N)=S)C(C(O)(C(F)(F)F)C(F)(F)F)C(C)(C)C1 (stereo unspecified) | > 10 µM

The compounds below were run on RPMI-8226 leukemia (assay: inhibition of tumour cell growth, NCI panel, 48 h).

Row | SMILES | TGI
60 | O=S1C(=c2ccc(=C3Sc4ccccc4S3)cc2)Sc2ccccc21 (stereo unspecified) | > 100 µM
61 | N#CC(C(=O)CCC(=O)Nc1ccc(Cl)c(Cl)c1)c1ccccc1 (stereo unspecified) | > 100 µM
62 | O=C(Nc1c(O)[nH]c(=S)[nH]c1=O)c1ccccc1 | > 100 µM
63 | COc1ccc(C2c3cc4c(cc3OC3(OC)COC(=O)C23)OCO4)c(OC)c1 (stereo unspecified) | > 45.5 µM
64 | CC1=C/C(=N\NC(N)=S)C(C(O)(C(F)(F)F)C(F)(F)F)C(C)(C)C1 (stereo unspecified) | > 10 µM

These compounds were tested on RXF 393 renal (assay: inhibition of tumour cell growth, NCI panel, 48 h).

Row | SMILES | TGI
65 | O=S1C(=c2ccc(=C3Sc4ccccc4S3)cc2)Sc2ccccc21 (stereo unspecified) | > 57.7 µM
66 | N#CC(C(=O)CCC(=O)Nc1ccc(Cl)c(Cl)c1)c1ccccc1 (stereo unspecified) | > 100 µM
67 | O=c1c2cccnc2ncn1CCN1CCCCC1 | > 100 µM
68 | COc1ccc(C2c3cc4c(cc3OC3(OC)COC(=O)C23)OCO4)c(OC)c1 (stereo unspecified) | 35.4 µM
69 | COc1cc2c(cc1O)[C@H](C)C(c1ccc(OC)c(OC)c1)O2 (stereo partly specified) | 30.3 µM
70 | CC1=C/C(=N\NC(N)=S)C(C(O)(C(F)(F)F)C(F)(F)F)C(C)(C)C1 (stereo unspecified) | > 10 µM

The compounds below were run on SF-268 CNS (assay: inhibition of tumour cell growth, NCI panel, 48 h).

Row | SMILES | TGI
71 | O=S1C(=c2ccc(=C3Sc4ccccc4S3)cc2)Sc2ccccc21 (stereo unspecified) | 37.3 µM
72 | N#CC(C(=O)CCC(=O)Nc1ccc(Cl)c(Cl)c1)c1ccccc1 (stereo unspecified) | > 100 µM
73 | O=c1c2cccnc2ncn1CCN1CCCCC1 | > 100 µM
74 | O=C(Nc1c(O)[nH]c(=S)[nH]c1=O)c1ccccc1 | > 100 µM
75 | COc1ccc(C2c3cc4c(cc3OC3(OC)COC(=O)C23)OCO4)c(OC)c1 (stereo unspecified) | > 100 µM
76 | COc1cc2c(cc1O)[C@H](C)C(c1ccc(OC)c(OC)c1)O2 (stereo partly specified) | > 100 µM
77 | CC1=C/C(=N\NC(N)=S)C(C(O)(C(F)(F)F)C(F)(F)F)C(C)(C)C1 (stereo unspecified) | > 10 µM

The compounds below were run on SF-295 CNS (assay: inhibition of tumour cell growth, NCI panel, 48 h).

Row | SMILES | TGI
78 | O=S1C(=c2ccc(=C3Sc4ccccc4S3)cc2)Sc2ccccc21 (stereo unspecified) | 31.2 µM
79 | N#CC(C(=O)CCC(=O)Nc1ccc(Cl)c(Cl)c1)c1ccccc1 (stereo unspecified) | > 100 µM
80 | O=c1c2cccnc2ncn1CCN1CCCCC1 | > 100 µM
81 | O=C(Nc1c(O)[nH]c(=S)[nH]c1=O)c1ccccc1 | > 100 µM
82 | COc1ccc(C2c3cc4c(cc3OC3(OC)COC(=O)C23)OCO4)c(OC)c1 (stereo unspecified) | 98.9 µM
83 | COc1cc2c(cc1O)[C@H](C)C(c1ccc(OC)c(OC)c1)O2 (stereo partly specified) | > 100 µM
84 | CC1=C/C(=N\NC(N)=S)C(C(O)(C(F)(F)F)C(F)(F)F)C(C)(C)C1 (stereo unspecified) | > 10 µM

What follows are compounds tested on SF-539 CNS (assay: inhibition of tumour cell growth, NCI panel, 48 h).

Row | SMILES | TGI
85 | O=S1C(=c2ccc(=C3Sc4ccccc4S3)cc2)Sc2ccccc21 (stereo unspecified) | 30.5 µM
86 | N#CC(C(=O)CCC(=O)Nc1ccc(Cl)c(Cl)c1)c1ccccc1 (stereo unspecified) | > 100 µM
87 | O=c1c2cccnc2ncn1CCN1CCCCC1 | > 100 µM
88 | O=C(Nc1c(O)[nH]c(=S)[nH]c1=O)c1ccccc1 | > 100 µM
89 | COc1ccc(C2c3cc4c(cc3OC3(OC)COC(=O)C23)OCO4)c(OC)c1 (stereo unspecified) | 21.5 µM
90 | COc1cc2c(cc1O)[C@H](C)C(c1ccc(OC)c(OC)c1)O2 (stereo partly specified) | 38.6 µM
91 | CC1=C/C(=N\NC(N)=S)C(C(O)(C(F)(F)F)C(F)(F)F)C(C)(C)C1 (stereo unspecified) | > 10 µM

Each compound was assayed on SK-MEL-2 melanoma (assay: inhibition of tumour cell growth, NCI panel, 48 h).

Row | SMILES | TGI
92 | O=S1C(=c2ccc(=C3Sc4ccccc4S3)cc2)Sc2ccccc21 (stereo unspecified) | 50.6 µM
93 | N#CC(C(=O)CCC(=O)Nc1ccc(Cl)c(Cl)c1)c1ccccc1 (stereo unspecified) | > 100 µM
94 | O=c1c2cccnc2ncn1CCN1CCCCC1 | > 100 µM
95 | O=C(Nc1c(O)[nH]c(=S)[nH]c1=O)c1ccccc1 | > 100 µM
96 | COc1ccc(C2c3cc4c(cc3OC3(OC)COC(=O)C23)OCO4)c(OC)c1 (stereo unspecified) | > 100 µM
